{
  "source": "BindingDB's records for doi:10.1021/jm030306r",
  "about": "(Merck Research Laboratories, 2003)",
  "target": "Integrin alpha-IIb/beta-3 (Homo sapiens, UniProt P08514+P05106)",
  "sequence (P05106 27-788 limits assumed)": "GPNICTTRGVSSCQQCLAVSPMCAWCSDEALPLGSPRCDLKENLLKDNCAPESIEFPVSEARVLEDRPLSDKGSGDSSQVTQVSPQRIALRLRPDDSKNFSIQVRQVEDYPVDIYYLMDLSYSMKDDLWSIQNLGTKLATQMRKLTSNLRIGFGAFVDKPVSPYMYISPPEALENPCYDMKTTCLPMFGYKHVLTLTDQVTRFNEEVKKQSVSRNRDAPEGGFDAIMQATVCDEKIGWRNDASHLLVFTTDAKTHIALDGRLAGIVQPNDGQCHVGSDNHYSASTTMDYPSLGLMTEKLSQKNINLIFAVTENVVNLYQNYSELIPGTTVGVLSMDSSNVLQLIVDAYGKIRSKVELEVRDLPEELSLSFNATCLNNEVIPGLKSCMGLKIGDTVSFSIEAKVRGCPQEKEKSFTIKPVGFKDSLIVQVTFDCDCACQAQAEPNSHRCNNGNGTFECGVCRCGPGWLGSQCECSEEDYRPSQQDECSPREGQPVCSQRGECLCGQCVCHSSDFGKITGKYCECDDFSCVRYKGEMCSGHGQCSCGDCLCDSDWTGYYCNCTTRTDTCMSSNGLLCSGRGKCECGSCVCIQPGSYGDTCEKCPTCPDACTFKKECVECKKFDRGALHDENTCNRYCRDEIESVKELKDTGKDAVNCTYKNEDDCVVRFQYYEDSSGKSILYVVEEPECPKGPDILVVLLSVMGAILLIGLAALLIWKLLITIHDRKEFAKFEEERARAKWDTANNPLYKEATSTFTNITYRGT",
  "sequence (P08514 32-887 limits assumed)": "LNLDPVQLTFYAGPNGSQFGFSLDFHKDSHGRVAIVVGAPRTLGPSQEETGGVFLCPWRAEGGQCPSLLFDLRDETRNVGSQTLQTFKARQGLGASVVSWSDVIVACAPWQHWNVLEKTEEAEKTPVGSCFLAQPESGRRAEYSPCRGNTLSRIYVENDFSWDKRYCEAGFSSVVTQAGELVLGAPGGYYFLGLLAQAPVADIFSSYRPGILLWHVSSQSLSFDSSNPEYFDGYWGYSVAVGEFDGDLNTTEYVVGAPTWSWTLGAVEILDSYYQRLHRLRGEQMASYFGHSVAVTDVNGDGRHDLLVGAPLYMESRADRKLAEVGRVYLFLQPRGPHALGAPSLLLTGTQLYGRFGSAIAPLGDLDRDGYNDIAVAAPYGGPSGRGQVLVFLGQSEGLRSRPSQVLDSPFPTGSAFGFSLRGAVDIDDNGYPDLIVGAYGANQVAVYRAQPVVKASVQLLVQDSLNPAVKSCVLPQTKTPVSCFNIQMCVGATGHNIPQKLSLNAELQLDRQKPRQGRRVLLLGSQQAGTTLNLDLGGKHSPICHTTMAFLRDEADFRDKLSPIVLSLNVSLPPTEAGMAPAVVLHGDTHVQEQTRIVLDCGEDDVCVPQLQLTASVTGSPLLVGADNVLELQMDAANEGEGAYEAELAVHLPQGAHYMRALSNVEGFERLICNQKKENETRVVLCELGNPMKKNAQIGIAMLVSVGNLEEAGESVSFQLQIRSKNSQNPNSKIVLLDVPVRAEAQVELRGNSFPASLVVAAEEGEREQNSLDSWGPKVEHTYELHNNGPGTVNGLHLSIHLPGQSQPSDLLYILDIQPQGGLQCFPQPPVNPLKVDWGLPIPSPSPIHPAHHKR",
  "sequence (P08514 891-1039 limits assumed)": "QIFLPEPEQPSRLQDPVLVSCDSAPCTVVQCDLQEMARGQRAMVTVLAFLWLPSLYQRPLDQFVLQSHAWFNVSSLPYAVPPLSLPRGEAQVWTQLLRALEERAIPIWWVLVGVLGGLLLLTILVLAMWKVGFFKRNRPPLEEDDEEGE",
  "assay": "Inhibition of alphaIIb-beta3 integrin mediated platelet aggregation",
  "data": [
    {"smiles": "COc1ccc([C@H](CC(=O)O)N2CCN(CCCc3ccc4c(n3)NCCC4)C2=O)cn1", "note": "[(S)-3-(6-Methoxy-pyridin-3-yl)-3-{2-oxo-3-[3-(5,6,7,8-tetrahydro-[1,8]naphthyridin-2-yl)-propyl]-imidazolidin-1-yl}-propionic acid]", "values": [
      {"measurement": "IC50", "value": 34.7, "unit": "µM"}
    ]}
  ]
}
